Reference: ChEMBL document CHEMBL1201862, “PubChem BioAssay data set” (2004)
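Five concentrations, 48 hours, 96-well plates. GI50 marks 50% less growth.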 Active and inactive are the calls of the source. Cut-off read from the data, not from the text of the source: active = GI50 up to about 1.1 µM and inactive = higher.

Experiments:
Test in all cases: growth of human tumour cells (NCI), 48 h
[1] = tested on: KM-20L2
[2] = tested on: M19-MEL
[3] = tested on: XF498
[4] = tested on: DLD-1
[5] = tested on: DMS-273
[6] = tested on: SNB-78
[7] = tested on: RXF 631
[8] = tested on: HOP-18
[9] = tested on: DMS-114

Compound	GI50 [1]	GI50 [2]	GI50 [3]	GI50 [4]	GI50 [5]	GI50 [6]	GI50 [7]	GI50 [8]	GI50 [9]
CCC(CC)NC1=C(NC(C)=O)C(=O)c2ccccc2C1=O	> 50 µM (inactive)	> 50 µM (inactive)	> 50 µM (inactive)	> 50 µM (inactive)	> 50 µM (inactive)	> 50 µM (inactive)			
Cc1ccc(S(=O)(=O)NC2(C=O)CCCC3CCCCC32)cc1 (stereo not drawn)	> 100 µM (inactive)	> 100 µM (inactive)		> 100 µM (inactive)	> 100 µM (inactive)	> 100 µM (inactive)	> 100 µM (inactive)	> 100 µM (inactive)	> 100 µM (inactive)
CC(=O)Nc1ccc(C2C(C(=O)Nc3ccccc3C)=C(C)NC(C)=C2C(=O)Nc2ccccc2C)cc1	> 100 µM (inactive)	> 100 µM (inactive)	> 100 µM (inactive)	> 100 µM (inactive)	> 100 µM (inactive)	> 100 µM (inactive)	> 100 µM (inactive)	> 100 µM (inactive)	> 100 µM (inactive)
COc1ccc(NC(=O)CC(=O)N/N=C/c2ccc(N(CCC#N)S(C)(=O)=O)cc2)cc1	> 100 µM (inactive)	> 100 µM (inactive)		> 100 µM (inactive)	> 100 µM (inactive)	> 100 µM (inactive)	> 100 µM (inactive)	> 100 µM (inactive)	> 100 µM (inactive)
CC1=C(C(=O)Nc2cccc(C(F)(F)F)c2)C(c2ccc(O)cc2)C(C(=O)Nc2cccc(C(F)(F)F)c2)=C(C)N1	18.3 µM (inactive)	16.4 µM (inactive)	2.61 µM (inactive)	20.5 µM (inactive)		23 µM (inactive)	14.8 µM (inactive)		14.8 µM (inactive)
CCN(CC)CCNc1ccc(C)c2sc3ccc(O)cc3c(=O)c12	2.14 µM (inactive)	1.1 µM (active)	1.2 µM (inactive)	1.66 µM (inactive)	0.162 µM (active)	1.76 µM (inactive)		1.34 µM (inactive)	0.982 µM (active)
CC1(C)N=C(N)N=C(N)N1c1ccc(CCCCc2ccc(S(=O)(=O)F)cc2Cl)c(Cl)c1	6.76 µM (inactive)		1.49 µM (inactive)	1.57 µM (inactive)	0.352 µM (active)	11.6 µM (inactive)		53.7 µM (inactive)	0.458 µM (active)
CC(=O)OC12C=CC(=O)N1c1ccccc1C(=O)O2 (stereo not drawn)	> 100 µM (inactive)	> 100 µM (inactive)	> 100 µM (inactive)	> 100 µM (inactive)	> 100 µM (inactive)	32.1 µM (inactive)		> 100 µM (inactive)	
CC(=O)O[C@]12CCCCC1C1(O)C(O)CCCC[C@H]12 (stereo partly drawn)	> 100 µM (inactive)	> 100 µM (inactive)			> 100 µM (inactive)	> 100 µM (inactive)		> 100 µM (inactive)	> 100 µM (inactive)
O=C1NC(=O)C(C(=O)C(=O)Nc2cc(Cl)ccc2Cl)C(=O)N1	> 100 µM (inactive)	> 100 µM (inactive)		> 100 µM (inactive)		> 100 µM (inactive)	> 100 µM (inactive)		> 100 µM (inactive)
COC(=O)C1=C(C)N(NC(=O)Nc2ccccc2)C2(N)N(NC(=O)Nc3ccccc3)C(C)=C(C(=O)OC)C12C(=O)OC (stereo not drawn)	> 100 µM (inactive)	25.1 µM (inactive)		55.7 µM (inactive)	40.3 µM (inactive)	26.1 µM (inactive)		81.8 µM (inactive)	77.1 µM (inactive)
Cc1ccccc1-c1c(N)nc(NC#N)nc1C(=O)Nc1ccccc1	> 100 µM (inactive)	> 100 µM (inactive)		> 100 µM (inactive)	> 100 µM (inactive)	> 100 µM (inactive)	> 100 µM (inactive)	> 100 µM (inactive)	> 100 µM (inactive)
COC(=O)c1ccc2n[se]nc2c1	> 100 µM (inactive)	> 100 µM (inactive)	> 100 µM (inactive)	> 100 µM (inactive)	> 100 µM (inactive)	> 100 µM (inactive)	> 100 µM (inactive)	> 100 µM (inactive)	> 100 µM (inactive)
O=C1c2ccccc2C(=O)N1CCN(CCN1C(=O)c2ccccc2C1=O)Cn1cccn1	> 100 µM (inactive)	69.8 µM (inactive)	> 100 µM (inactive)	31.9 µM (inactive)	46.1 µM (inactive)	> 100 µM (inactive)	29 µM (inactive)		19.5 µM (inactive)
Oc1nc(CC(O)c2ccc(Cl)c(Cl)c2)cc(-c2ccccc2)n1 (stereo not drawn)	60 µM (inactive)	44.3 µM (inactive)		> 100 µM (inactive)	> 100 µM (inactive)			> 100 µM (inactive)	38.9 µM (inactive)
Cc1cc(NS(=O)(=O)c2ccc(Nc3c4ccccc4nc4c(C(=O)NCCN(C)C)cccc34)cc2)no1	26.4 µM (inactive)	12.5 µM (inactive)	18.3 µM (inactive)	11.8 µM (inactive)	2.86 µM (inactive)	12.7 µM (inactive)			0.713 µM (active)
CCC1(CN(C)C)CC/C(=C\c2ccc3c(c2)OCO3)C1=O (stereo not drawn)	47.2 µM (inactive)	> 100 µM (inactive)		82.2 µM (inactive)	> 100 µM (inactive)	> 100 µM (inactive)	> 100 µM (inactive)	> 100 µM (inactive)	
C=CCCC(C)N(C(=O)OC(C)(C)C)S(=O)(=O)c1ccc(C)cc1 (stereo not drawn)	> 100 µM (inactive)		> 100 µM (inactive)	> 100 µM (inactive)	> 100 µM (inactive)	> 100 µM (inactive)			
NC(=O)C(=O)N/N=C(\CC1(O)C(=O)Nc2ccccc21)c1ccc2ccccc2c1 (stereo not drawn)		25.2 µM (inactive)	30.5 µM (inactive)	37.8 µM (inactive)	28.2 µM (inactive)	72.9 µM (inactive)		46.3 µM (inactive)	21.3 µM (inactive)
O=C(Nc1ccccc1SC(/C=C/NNC1=NN=C(c2ccccc2)C(c2ccccc2)N1)c1ccccc1)c1ccc(Cl)cc1Cl (stereo not drawn)	> 100 µM (inactive)	44.3 µM (inactive)	> 10 µM (inactive)	49.2 µM (inactive)	41.6 µM (inactive)	87.5 µM (inactive)			45.1 µM (inactive)
CC1OC(=O)C(O)=C1O (stereo not drawn)	> 100 µM (inactive)	> 100 µM (inactive)	> 100 µM (inactive)		> 100 µM (inactive)	> 100 µM (inactive)		> 100 µM (inactive)	
COC(=O)C1[C@@H](C(=O)OC)C12C=Cc1ccccc1C=C2 (stereo partly drawn)	> 100 µM (inactive)	> 100 µM (inactive)	51.6 µM (inactive)	> 100 µM (inactive)	> 100 µM (inactive)	> 100 µM (inactive)			> 100 µM (inactive)
COC(=O)c1ccc(/C=C/S(=O)(=O)c2ccccc2)cc1	> 100 µM (inactive)	> 100 µM (inactive)	> 100 µM (inactive)	> 100 µM (inactive)	> 100 µM (inactive)	> 100 µM (inactive)	> 100 µM (inactive)		> 100 µM (inactive)
CCOC(=O)CCC(NC(=O)c1ccc(NCc2ccc3nc(-c4ccccc4)c(Cl)nc3c2)cc1)C(=O)OCC (stereo not drawn)	80.5 µM (inactive)	17.4 µM (inactive)	1.58 µM (inactive)	28.6 µM (inactive)	21.4 µM (inactive)	32.4 µM (inactive)	13.2 µM (inactive)		22.4 µM (inactive)
CCOC(=O)/C(=C/c1ccc(N(C)C)cc1)N(CC)CC	> 100 µM (inactive)	24.6 µM (inactive)	> 100 µM (inactive)			69.3 µM (inactive)			54 µM (inactive)
NC(=O)c1[nH]nc(C2OC(CO)C(O)C2O)c1O (stereo not drawn)	2.76 µM (inactive)	13.2 µM (inactive)	71.9 µM (inactive)	1.45 µM (inactive)	0.713 µM (active)	37.7 µM (inactive)		43 µM (inactive)	19.9 µM (inactive)
NC(CCCC(N)P(=O)(O)c1ccccc1)P(=O)(O)c1ccccc1 (stereo not drawn)	> 261 µM (inactive)	> 261 µM (inactive)	> 261 µM (inactive)	> 261 µM (inactive)	> 261 µM (inactive)	> 261 µM (inactive)		> 261 µM (inactive)	> 261 µM (inactive)
